Test results from ChEMBL document CHEMBL2311509, “Synthesis and antiproliferative evaluation of 3-phenylquinolinylchalcone derivatives against non-small cell lung cancers and breast cancers” (Eur J Med Chem, 2013).
Active and inactive are the calls of the source. No cut-off for these calls is given here.

test system: MDA-MB-231; test: Induction of cell cycle arrest in human MDA-MB-231 cells assessed as accumulation at G2/M phase at 0.1 uM after 24 hrs by flow cytometry (reference value: 22.1 +/- 3.1%); assay type: functional; details: not given

Q: Which Activity does the source give for COc1ccc(-c2cc3ccccc3nc2/C=C/C(=O)c2ccc(Br)s2)cc1 here?
A: The Activity was 25.7%.

test system: MDA-MB-231; test: Induction of cell cycle arrest in human MDA-MB-231 cells assessed as accumulation at S phase at 0.1 uM after 24 hrs by flow cytometry (reference value: 12.4 +/- 2.1%); assay type: functional; details: not given

Q: With COc1ccc(-c2cc3ccccc3nc2/C=C/C(=O)c2ccc(Br)s2)cc1 as the compound, how does the Activity read?
A: Its Activity is 13.1%.

test system: MDA-MB-231; test: Induction of cell cycle arrest in human MDA-MB-231 cells assessed as accumulation at S phase at 0.5 uM after 24 hrs by flow cytometry (reference value: 12.4 +/- 2.1%); assay type: functional; details: not given

Q: Which Activity does the source give for COc1ccc(-c2cc3ccccc3nc2/C=C/C(=O)c2ccc(Br)s2)cc1 here?
A: Its Activity is 10.1%.

test system: MDA-MB-231; test: Induction of cell cycle arrest in human MDA-MB-231 cells assessed as accumulation at G1 phase at 0.5 uM after 24 hrs by flow cytometry (reference value: 63.1 +/- 2.7%); assay type: functional; details: not given

Q: Which Activity does the source give for COc1ccc(-c2cc3ccccc3nc2/C=C/C(=O)c2ccc(Br)s2)cc1 here?
A: The Activity was 39.6%.

test system: MDA-MB-231; test: Antiproliferative activity against human MDA-MB-231 cells after 72 hrs by XTT assay; assay type: functional, cell-based; details: MDA-MB-231, 72 h

Q: For COc1ccc(-c2cc3ccccc3nc2/C=C/C(=O)c2ccc(F)cc2)cc1, which IC50 is on record?
A: Its IC50 is 0.83 µM.

Q: For COc1ccc(-c2cc3ccccc3nc2/C=C/C(=O)c2c(OC)cccc2OC)cc1, which IC50 is on record?
A: The IC50 was 5.63 µM.

Q: With COc1ccc(-c2cc3ccccc3nc2/C=C/C(=O)c2ccc(O)cc2)cc1 as the compound, how does the IC50 read?
A: Its IC50 is 6.35 µM.

Q: With COc1ccc(-c2cc3ccccc3nc2/C=C/C(=O)c2ccco2)cc1 as the compound, how does the IC50 read?
A: The IC50 was 0.63 µM.

Q: Which IC50 does the source give for COc1ccc(-c2cc3ccccc3nc2/C=C/C(=O)c2ccc(Br)s2)cc1 here?
A: The IC50 was under 0.1 µM.

test system: MDA-MB-231; test: Induction of cell cycle arrest in human MDA-MB-231 cells assessed as accumulation at subG1 phase at 1 uM after 24 hrs by flow cytometry (reference value: 3.3 +/- 1.5%); assay type: functional; details: not given

Q: Which Activity does the source give for COc1ccc(-c2cc3ccccc3nc2/C=C/C(=O)c2ccc(Br)s2)cc1 here?
A: Its Activity is 33.4%.

test system: MDA-MB-231; test: Induction of cell cycle arrest in human MDA-MB-231 cells assessed as accumulation at G1 phase at 0.1 uM after 24 hrs by flow cytometry (reference value: 63.1 +/- 2.7%); assay type: functional; details: not given

Q: For COc1ccc(-c2cc3ccccc3nc2/C=C/C(=O)c2ccc(Br)s2)cc1, which Activity is on record?
A: Its Activity is 54.3%.

test system: MDA-MB-231; test: Induction of apoptosis in human MDA-MB-231 cells assessed as PARP cleavage at 0.1 to 1 uM after 24 hrs by immunoblot method; assay type: functional, cell-based; details: not given

Q: For COc1ccc(-c2cc3ccccc3nc2/C=C/C(=O)c2ccc(Br)s2)cc1, which Activity is on record?
A: The Activity was “Dose-dependent effect”.

test system: SK-BR-3; test: Antiproliferative activity against human SKBR3 cells after 72 hrs by XTT assay; assay type: functional, cell-based; details: SK-BR-3, 72 h

Q: With COc1ccc(-c2cc3ccccc3nc2/C=C/C(=O)c2ccc(F)cc2)cc1 as the compound, how does the IC50 read?
A: The IC50 was 0.81 µM.

Q: For COc1ccc(-c2cc3ccccc3nc2/C=C/C(=O)c2c(OC)cccc2OC)cc1, which IC50 is on record?
A: Its IC50 is 3.83 µM.

Q: For COc1ccc(-c2cc3ccccc3nc2/C=C/C(=O)c2ccc(O)cc2)cc1, which IC50 is on record?
A: The IC50 was 3.88 µM.

Q: With COc1ccc(-c2cc3ccccc3nc2/C=C/C(=O)c2ccco2)cc1 as the compound, how does the IC50 read?
A: The IC50 was 0.64 µM.

Q: For COc1ccc(-c2cc3ccccc3nc2/C=C/C(=O)c2ccc(Br)s2)cc1, which IC50 is on record?
A: The IC50 was 0.52 µM.

test system: not listed separately; test: Antiproliferative activity against human H184B5F5/M10 cells after 72 hrs by XTT assay; assay type: functional, cell-based; details: H184B5F5/M10, 72 h

Q: For COc1ccc(-c2cc3ccccc3nc2/C=C/C(=O)c2ccc(F)cc2)cc1, which IC50 is on record?
A: The IC50 was over 10 µM.

Q: Which IC50 does the source give for COc1ccc(-c2cc3ccccc3nc2/C=C/C(=O)c2c(OC)cccc2OC)cc1 here?
A: Its IC50 is 4.47 µM.

Q: With COc1ccc(-c2cc3ccccc3nc2/C=C/C(=O)c2ccc(O)cc2)cc1 as the compound, how does the IC50 read?
A: Its IC50 is 5.69 µM.

Q: Which IC50 does the source give for COc1ccc(-c2cc3ccccc3nc2/C=C/C(=O)c2ccco2)cc1 here?
A: Its IC50 is 6.24 µM.

Q: For COc1ccc(-c2cc3ccccc3nc2/C=C/C(=O)c2ccc(Br)s2)cc1, which IC50 is on record?
A: The IC50 was 9.38 µM.

test system: MDA-MB-231; test: Induction of cell cycle arrest in human MDA-MB-231 cells assessed as accumulation at subG1 phase at 0.5 uM after 24 hrs by flow cytometry (reference value: 3.3 +/- 1.5%); assay type: functional; details: not given

Q: For COc1ccc(-c2cc3ccccc3nc2/C=C/C(=O)c2ccc(Br)s2)cc1, which Activity is on record?
A: Its Activity is 23.5%.

test system: MDA-MB-231; test: Induction of apoptosis in human MDA-MB-231 cells assessed as caspase 3 activation at 0.1 to 1 uM after 24 hrs by immunoblot method; assay type: functional, cell-based; details: not given

Q: For COc1ccc(-c2cc3ccccc3nc2/C=C/C(=O)c2ccc(Br)s2)cc1, which Activity is on record?
A: Its Activity is “Dose-dependent effect”.

test system: MDA-MB-231; test: Induction of cell cycle arrest in human MDA-MB-231 cells assessed as accumulation at S phase at 1 uM after 24 hrs by flow cytometry (reference value: 12.4 +/- 2.1%); assay type: functional; details: not given

Q: With COc1ccc(-c2cc3ccccc3nc2/C=C/C(=O)c2ccc(Br)s2)cc1 as the compound, how does the Activity read?
A: Its Activity is 7.2%.

test system: A549; test: Antiproliferative activity against human A549 cells after 72 hrs by XTT assay; assay type: functional, cell-based; details: A549, 72 h

Q: Which IC50 does the source give for COc1ccc(-c2cc3ccccc3nc2/C=C/C(=O)c2ccc(F)cc2)cc1 here?
A: Its IC50 is 8.32 µM.

Q: With COc1ccc(-c2cc3ccccc3nc2/C=C/C(=O)c2c(OC)cccc2OC)cc1 as the compound, how does the IC50 read?
A: The IC50 was 7.41 µM.

Q: Which IC50 does the source give for COc1ccc(-c2cc3ccccc3nc2/C=C/C(=O)c2ccc(O)cc2)cc1 here?
A: The IC50 was 7.44 µM.

Q: Which IC50 does the source give for COc1ccc(-c2cc3ccccc3nc2/C=C/C(=O)c2ccco2)cc1 here?
A: The IC50 was 6.13 µM.

Q: With COc1ccc(-c2cc3ccccc3nc2/C=C/C(=O)c2ccc(Br)s2)cc1 as the compound, how does the IC50 read?
A: The IC50 was 6.25 µM.

test system: MDA-MB-231; test: Induction of cell cycle arrest in human MDA-MB-231 cells assessed as accumulation at G1 phase at 1 uM after 24 hrs by flow cytometry (reference value: 63.1 +/- 2.7%); assay type: functional; details: not given

Q: Which Activity does the source give for COc1ccc(-c2cc3ccccc3nc2/C=C/C(=O)c2ccc(Br)s2)cc1 here?
A: The Activity was 30.1%.

test system: MCF7; test: Antiproliferative activity against human MCF7 cells after 72 hrs by XTT assay; assay type: functional, cell-based; details: MCF7, 72 h

Q: Which IC50 does the source give for COc1ccc(-c2cc3ccccc3nc2/C=C/C(=O)c2ccc(F)cc2)cc1 here?
A: The IC50 was 5.45 µM.

Q: Which IC50 does the source give for COc1ccc(-c2cc3ccccc3nc2/C=C/C(=O)c2c(OC)cccc2OC)cc1 here?
A: Its IC50 is 4.52 µM.

Q: For COc1ccc(-c2cc3ccccc3nc2/C=C/C(=O)c2ccc(O)cc2)cc1, which IC50 is on record?
A: Its IC50 is 6.71 µM.

Q: For COc1ccc(-c2cc3ccccc3nc2/C=C/C(=O)c2ccco2)cc1, which IC50 is on record?
A: The IC50 was 0.71 µM.

Q: For COc1ccc(-c2cc3ccccc3nc2/C=C/C(=O)c2ccc(Br)s2)cc1, which IC50 is on record?
A: The IC50 was 0.91 µM.

test system: MDA-MB-231; test: Induction of cell cycle arrest in human MDA-MB-231 cells assessed as accumulation at G2/M phase at 1 uM after 24 hrs by flow cytometry (reference value: 22.1 +/- 3.1%); assay type: functional; details: not given

Q: For COc1ccc(-c2cc3ccccc3nc2/C=C/C(=O)c2ccc(Br)s2)cc1, which Activity is on record?
A: Its Activity is 30.1%.

test system: MDA-MB-231; test: Antiproliferative activity against human MDA-MB-231 cells at 0.1 to 5 uM by XTT assay; assay type: functional, cell-based; details: TDE = time-dependent effect

Q: Which Activity does the source give for COc1ccc(-c2cc3ccccc3nc2/C=C/C(=O)c2ccc(Br)s2)cc1 here?
A: Its Activity is “tde”.

test system: MDA-MB-231; test: Induction of morphological changes in human MDA-MB-231 cells at 0.5 uM after 24 hrs by light microscopy; assay type: functional, cell-based; details: not given

Q: For COc1ccc(-c2cc3ccccc3nc2/C=C/C(=O)c2ccc(Br)s2)cc1, which Activity is on record?
A: Its Activity is “Active”.

test system: not listed separately; test: Antiproliferative activity against human H1299 cells after 72 hrs by XTT assay; assay type: functional, cell-based; details: NCI-H1299, 72 h

Q: For COc1ccc(-c2cc3ccccc3nc2/C=C/C(=O)c2ccc(F)cc2)cc1, which IC50 is on record?
A: The IC50 was 0.82 µM.

Q: For COc1ccc(-c2cc3ccccc3nc2/C=C/C(=O)c2c(OC)cccc2OC)cc1, which IC50 is on record?
A: The IC50 was 4.71 µM.

Q: For COc1ccc(-c2cc3ccccc3nc2/C=C/C(=O)c2ccc(O)cc2)cc1, which IC50 is on record?
A: The IC50 was 8.97 µM.

Q: Which IC50 does the source give for COc1ccc(-c2cc3ccccc3nc2/C=C/C(=O)c2ccco2)cc1 here?
A: The IC50 was 0.73 µM.

Q: With COc1ccc(-c2cc3ccccc3nc2/C=C/C(=O)c2ccc(Br)s2)cc1 as the compound, how does the IC50 read?
A: Its IC50 is 0.71 µM.

test system: MDA-MB-231; test: Induction of cell cycle arrest in human MDA-MB-231 cells assessed as accumulation at G2/M phase at 0.5 uM after 24 hrs by flow cytometry (reference value: 22.1 +/- 3.1%); assay type: functional; details: not given

Q: Which Activity does the source give for COc1ccc(-c2cc3ccccc3nc2/C=C/C(=O)c2ccc(Br)s2)cc1 here?
A: Its Activity is 28.3%.

test system: MDA-MB-231; test: Antiproliferative activity against human MDA-MB-231 cells after 48 hrs by XTT assay; assay type: functional, cell-based; details: not given

Q: For COc1ccc(-c2cc3ccccc3nc2/C=C/C(=O)c2ccc(Br)s2)cc1, which Activity is on record?
A: The Activity was “Dose-dependent effect”.

test system: not listed separately; test: Antiproliferative activity against human H460 cells after 72 hrs by XTT assay; assay type: functional, cell-based; details: NCI-H460, 72 h

Q: For COc1ccc(-c2cc3ccccc3nc2/C=C/C(=O)c2ccc(F)cc2)cc1, which IC50 is on record?
A: The IC50 was 6.99 µM.

Q: With COc1ccc(-c2cc3ccccc3nc2/C=C/C(=O)c2c(OC)cccc2OC)cc1 as the compound, how does the IC50 read?
A: The IC50 was 6.63 µM.

Q: Which IC50 does the source give for COc1ccc(-c2cc3ccccc3nc2/C=C/C(=O)c2ccc(O)cc2)cc1 here?
A: The IC50 was 6.93 µM.

Q: With COc1ccc(-c2cc3ccccc3nc2/C=C/C(=O)c2ccco2)cc1 as the compound, how does the IC50 read?
A: The IC50 was 6.43 µM.

Q: With COc1ccc(-c2cc3ccccc3nc2/C=C/C(=O)c2ccc(Br)s2)cc1 as the compound, how does the IC50 read?
A: The IC50 was 5.17 µM.

test system: H184B5F5/M10; test: Antiproliferative activity against human H184B5F5/M10 cells at 0.1 to 5 uM after 12 to 48 hrs by XTT assay; assay type: functional, cell-based; details: not given

Q: With COc1ccc(-c2cc3ccccc3nc2/C=C/C(=O)c2ccc(Br)s2)cc1 as the compound, how does the Activity read?
A: Its Activity is “inactive”.

test system: MDA-MB-231; test: Induction of cell cycle arrest in human MDA-MB-231 cells assessed as accumulation at subG1 phase at 0.1 uM after 24 hrs by flow cytometry (reference value: 3.3 +/- 1.5%); assay type: functional; details: not given

Q: For COc1ccc(-c2cc3ccccc3nc2/C=C/C(=O)c2ccc(Br)s2)cc1, which Activity is on record?
A: Its Activity is 8.1%.
